Entries after “also recorded” stand apart in the source; their conditions may differ.
Tested on: left motor cortex
Experiment: Interleaved TMS/phMRI (BOLD fMRI) with TMS over motor cortex
Format: in vivo, human
Conditions: for Voxels, effect of LTG (between day) / Z-score, effect of LTG (between day): Motor Cortex Stimulation, Placebo-LTG; for Z-score, effect of LTG (between day): p < .001
Protocol: Study design: We performed a randomized, double-blind, crossover trial involving two visits at least one week apart (FIG. 8). […] Serum LTG levels, RMTs, and interleaved TMS/phMRI images during both motor and then prefrontal TMS were then gathered for each subject. One week later they received LTG or placebo again, followed by identical RMT and interleaved TMS/phMRI studies.
Combined TMS and MRI: Immediately following RMT determination, interleaved TMS/phMRI acquisitions were performed in a Picker EDGE 1.5 T MR scanner with actively shielded magnet and high-performance gradients (27 mT/m, 72 T/m/sec) using a typical gradient echo, echo planar imaging (EPI) fMRI sequence (tip angle=90, TR=3 sec, FOV 27.0 cm, fifteen 7 mm thick slices, 1 mm gap). TMS was delivered using a Dantec MagPro with a special nonferromagnetic TMS coil of figure-8 design with an 8-meter cable (Dantec Medical A/S, Skovlunde, Denmark) and a room set up identical to prior TMS/fMRI studies from our group. TMS pulses and the fMRI sequence were interleaved as described before^21. Each cycle, illustrated in FIG. 9, consisted of six 21-sec sub-cycles—four Test and two task (100% RMT stimulation and 120% RMT stimulation). During each sub-cycle, the scanner acquired seven sets of 15 transverse images. During the task sub-cycles the TMS was triggered 100 ms after every […] image acquisition to produce a TMS stimulation rate of 1 Hz. The entire TMS/fMRI sequence lasted 882 sec (14.7 min).
TMS Coil Placement in the MRI scanner: Motor cortex: Before being placed into the MRI scanner, subjects had their resting motor threshold (RMT) quickly determined with the Dantec TMS while sitting on the MRI gantry. For many reasons (different capacitors, coil design, length of cable, MRI filter), the RMT determined with the Magstim in the BSL was not the same RMT needed inside the MRI scanner with the Dantec. After this new MRI RMT was determined, the TMS coil was rigidly mounted in the MR head coil with a specially designed TMS coil-holder, adjustable in six dimensions^22. Subjects wore swim caps and special earplugs. With the head coil on the gantry outside the scanner bore, subjects inserted their head into the head coil and adjusted their position while the TMS coil was intermittently pulsed with 100% RMT. Subjects adjusted their head until pulsing the coil caused visible movement of the contralateral (right) hand APB (3 out of 6). As soon as a subject's new MRI RMT-correct scalp location was determined, the holder's six dimensions and earplugs were locked. These head holder settings and RMT were recorded and used with the second visit. During the second MRI visit a week later, the headholder was set with the previous week's coordinates for that subject, and the previous RMT was used for the second visit.
Individual fMRI Data Analyses: MR scans were transferred into ANALYZE format and then further processed on Sun workstations (Sun Microsystems, Palo Alto, Calif.). Scans were checked using MEDx3.3 (Sensor Systems Inc, Sterling, Va.) for movement across runs, and then were coregistered to a mean image using automatic image registration. For all subjects, movement across the 14.7-minute study was less than 2 mm in all 3 axes. After correction of motion, we used a delayed boxcar model, employed a high-pass filter to remove signal drift, cardiac and respiratory effects, and other low frequency artifacts. Then, we spatially transformed each subject's data into the Talairach Atlas (input voxel dimensions, 2.1×2.1×8 mm, to output voxel dimensions, 4×4×4 mm), smoothed (4×2 mm) the data and generated z map with the Statistical Parametric Mapping (SPM) 96 module in MEDx3.3. We assumed an uncorrected F threshold UF P>0.99 to preserve as many voxels as possible for the cluster analysis.
Group fMRI Data Analyses: All subject's unthresholded z maps were combined based on comparison of condition (TMS vs Rest), intensity (100% RMT-TMS vs 120% RMT-TMS), visit (LTG vs Placebo). […]

Nc1nnc(-c2cccc(Cl)c2Cl)c(N)n1 [LTG, Lamotrigine]
number of active voxels in the motor cortex underneath the TMS coil, compared with placebo (120% RMT minus rest over motor cortex, 10 subjects, Wilcoxon p=0.05): significantly decreased
Z-score, region of activation (LTG day, within day, n = 10, 100% RMT-Rest, Left cingulate gyrus (BA 32), Talairach −4,32,28): 3.97
Z-score, region of activation (LTG day, within day, n = 10, 100% RMT-Rest, Left insula (BA 13), Talairach −36,20,12): 3.98
Z-score, region of activation (LTG day, within day, n = 10, 100% RMT-Rest, Left middle frontal gyrus (BA 46), Talairach −44,40,24): 4.59
Z-score, region of activation (LTG day, within day, n = 10, 100% RMT-Rest, Right insula (BA 13), Talairach 36,8,12): 4.26
Z-score, region of activation (LTG day, within day, n = 10, 100% RMT-Rest, Right middle frontal gyrus (BA 6), Talairach 32,8,52): 4.06
Z-score, region of activation (LTG day, within day, n = 10, 100% RMT-Rest, Right postcentral gyrus (BA 3), Talairach 52,−16,40): 3.18
Z-score, region of activation (LTG day, within day, n = 10, 100% RMT-Rest, Right precentral gyrus, Talairach 40,−4,32): 4.31
Region of activation (LTG day, within day, n = 10, 120% RMT-100%): No activity
Z-score, region of activation (LTG day, within day, n = 10, 120% RMT-Rest, Left medial frontal gyrus (BA 6), Talairach −4,60,0): 4.06
Z-score, region of activation (LTG day, within day, n = 10, 120% RMT-Rest, Left postcentral gyrus (BA 2), Talairach −36,0,4): 4.60
Z-score, region of activation (LTG day, within day, n = 10, 120% RMT-Rest, Left superior temporal gyrus, Talairach −60,8,24): 3.14
Z-score, region of activation (LTG day, within day, n = 10, 120% RMT-Rest, Left thalamus, Talairach −32,8,−24): 6.46
Z-score, region of activation (LTG day, within day, n = 10, 120% RMT-Rest, Right cingulate gyrus, Talairach 4,28,−16): 4.33
Z-score, region of activation (LTG day, within day, n = 10, 120% RMT-Rest, Right middle frontal gyrus (BA 9), Talairach 48,36,12): 4.62
Z-score, region of activation (LTG day, within day, n = 10, 120% RMT-Rest, Right superior temporal gyrus (BA 38), Talairach 40,−12,4): 3.14
Voxels, effect of LTG (between day) (Cerebellum, Right): 70
Z-score, effect of LTG (between day) (Cerebellum, Right, Talairach 13,−46,−23): 3.34
Voxels, effect of LTG (between day) (Left Precentral gyrus (underneath TMS coil)): 82
Z-score, effect of LTG (between day) (Left Precentral gyrus (underneath TMS coil), Talairach −32,−24,52): 3.87
Voxels, effect of LTG (between day) (Posterior Cingulate, Left): 93
Z-score, effect of LTG (between day) (Posterior Cingulate, Left, Talairach −1,−25,50): 3.95
Voxels, effect of LTG (between day) (Precuneus, Left): 132
Z-score, effect of LTG (between day) (Precuneus, Left, Talairach −1,−62,50): 3.48
TMS-induced activation in the motor cortex (underneath the coil) and other regions, compared to placebo (formal between-day analysis, group data in 10 subjects): significantly less; also recorded: reduced
% BOLD signal change in motor cortex compared with placebo (left primary motor cortex beneath the coil, 10 subjects, ANOVA F=11.89, p=0.007): significantly decreased

— patent US20090024021A1, “Methods and Systems for Using Transcranial Magnetic Stimulation and Functional Brain Mapping for Examining Cortical Sensitivity, Brain Communication, and Effects of Medication” (priority 2002, published 2009)
